Measurements from patent publication US11912717B2 (Shenzhen Tenver Biopharm Co., Ltd., priority 2018, dated 2024).

Assay: Stability test (accelerated experiment, sealed PE/aluminum foil bags, 40±2° C., humidity 75±5%)
Settings: for Purity by HPLC / Appearance / XRPD: 40±2° C., humidity 75±5%
Procedure: X-ray powder diffractometer model: Rigaku D/max-2200 Cu target; operation condition: scanning speed, 4°/min, scanning step width, 0.01°.
High performance liquid chromatograph, Agilent1100; Chromatographic column: C18, 4.6 mm×250 mm; mobile phase, acetonitrile:0.1% phosphoric acid aqueous solution=65:35 (v:v); Detection wavelength: 240 nm; flow rate, 1.0 ml/min; Column temperature: 25° C.
The bags were electrothermally sealed, and then placed into aluminum foil bags which were also electrothermally sealed.

## tenvermectin B [crystal form I of tenvermectin B]
First month
  Purity by HPLC: 99.0
First month, cell wraps: White / crystalline / powder
  Appearance: White
First month, cell wraps: crystal / form I
  XRPD: crystal
Initial data
  Purity by HPLC: 99.1
Initial data, cell wraps over 2 lines: crystal / form I
  XRPD: crystal
Initial data, cell wraps over 3 lines: White / crystalline / powder
  Appearance: White
Second month
  Purity by HPLC: 99.1
Second month, cell wraps: White / crystalline / powder
  Appearance: White
Second month, cell wraps: crystal / form I
  XRPD: crystal
Sixth month
  Purity by HPLC: 98.9
Sixth month, cell wraps: White / crystalline / powder
  Appearance: White
Sixth month, cell wraps: crystal / form I
  XRPD: crystal
Stability experiment
  crystal transformation phenomenon in the stability experiment: does not occur
Third month
  Purity by HPLC: 98.9
Third month, cell wraps: White / crystalline / powder
  Appearance: White
Third month, cell wraps: crystal / form I
  XRPD: crystal
